In patent US20250339454A1, “COMPOSITIONS AND METHODS FOR THE PREVENTION OF LOSS OF ORGAN FUNCTION ASSOCIATED WITH CHRONIC ORGAN DISEASE” (Revelation Biosciences, Inc., priority 2023, published 2025):
Entries after “also recorded” stand apart in the source; their conditions may differ. Read-outs that look alike come from different tables or passages of the source.

System: rat UUO model of acute kidney injury and chronic kidney disease
Assay type: in vivo
Text: Composite data represents the average of 3 anatomically distinct depths (10 images/depth/rat/group=˜60-65% of renal cortical area).

[1] = rat serum, Day 7 post UUO, all groups, dose dependent, relative to the positive control group

| Compound | UUO-induced increases in renal cortical CVF (reference compound, dose not given) | IL-6 (marker of inflammation) (UUO model) | fibrosis (collagen volume fraction, total collagen deposition via PicoSirius Red) (daily administration, dose dependent, relative to the positive control group) | UUO-induced increases in renal cortical CVF (dosed at 0.3 mg/kg) | UUO-induced increases in renal cortical CVF (dosed at 0.9 mg/kg) | IL-1β (marker of inflammation) (rat serum, Day 7 post UUO) | IL-18 (marker of inflammation) (rat serum, Day 7 post UUO) | circulating anti-inflammatory interleukin-10 (IL-10) [1] | circulating hepcidin [1] | circulating neutrophil gelatinase-associated lipocalin (NGAL) [1] | circulating transforming growth factor-β (TGF-β) (rat serum, Day 7 post UUO, daily administration, dose dependent, relative to the positive control group) |
| --- | --- | --- | --- | --- | --- | --- | --- | --- | --- | --- | --- |
| Cc1cccc(-c2[nH]c(C(C)(C)C)nc2-c2ccc3nccnc3c2)n1 [SB-525334, reference compound] | attenuated | – | – | – | – | – | – | – | – | – | – |
| phosphorylated hexaacyl disaccharide [REVTx-300] | – | no increase | significant reduction; also recorded: Dose-dependent reduction | attenuated | attenuated | relatively minor increase | relatively minor increase | significantly increased | significantly increased | significantly increased | significant reduction |
